Measurements: the CheMixHub viscosity set
± gives the uncertainty stated by the source.

Assay: xn = mol fraction of the nth substance listed

OCCCl + CCCO
viscosity [mPa·s], 101.33 kPa
Conditions	x1 = 0.099	x1 = 0.1945	x1 = 0.2948	x1 = 0.3912	x1 = 0.4924	x1 = 0.5924	x1 = 0.693	x1 = 0.8071	x1 = 0.8959
298.15 K	1.761 ± 0.041	1.802 ± 0.042	1.842 ± 0.043	1.92 ± 0.045	2.028 ± 0.047	2.148 ± 0.049	2.281 ± 0.052	2.428 ± 0.055	2.6 ± 0.059
303.15 K	1.58 ± 0.037	1.62 ± 0.038	1.67 ± 0.039	1.735 ± 0.041	1.813 ± 0.042	1.891 ± 0.044	2.02 ± 0.047	2.16 ± 0.05	2.3 ± 0.053
308.15 K	1.4 ± 0.033	1.44 ± 0.034	1.48 ± 0.035	1.542 ± 0.036	1.606 ± 0.038	1.678 ± 0.039	1.76 ± 0.041	1.88 ± 0.044	2.001 ± 0.046

OCCCl + CCOC(C)=O
viscosity [mPa·s], 101.33 kPa
Conditions	x1 = 0.1033	x1 = 0.2006	x1 = 0.3231	x1 = 0.4048	x1 = 0.5015	x1 = 0.6007	x1 = 0.7022	x1 = 0.8	x1 = 0.9
298.15 K	0.485 ± 0.004	0.542 ± 0.004	0.643 ± 0.005	0.729 ± 0.005	0.864 ± 0.006	1.065 ± 0.008	1.326 ± 0.01	1.689 ± 0.013	2.242 ± 0.017
303.15 K	0.454 ± 0.004	0.51 ± 0.004	0.601 ± 0.005	0.679 ± 0.005	0.8 ± 0.006	0.967 ± 0.007	1.2 ± 0.009	1.517 ± 0.011	1.98 ± 0.014
308.15 K	0.43 ± 0.003	0.482 ± 0.004	0.565 ± 0.004	0.635 ± 0.005	0.746 ± 0.005	0.894 ± 0.006	1.098 ± 0.008	1.369 ± 0.009	1.776 ± 0.012

OCCCl + CO
viscosity [mPa·s], 101.33 kPa
Conditions	x1 = 0.096	x1 = 0.2122	x1 = 0.2939	x1 = 0.3927	x1 = 0.4944	x1 = 0.598	x1 = 0.6969	x1 = 0.7977	x1 = 0.8997
298.15 K	0.615 ± 0.017	0.777 ± 0.02	0.91 ± 0.023	1.099 ± 0.027	1.321 ± 0.032	1.591 ± 0.038	1.869 ± 0.043	2.13 ± 0.049	2.45 ± 0.056
303.15 K	0.572 ± 0.016	0.721 ± 0.019	0.834 ± 0.021	1.003 ± 0.025	1.195 ± 0.029	1.434 ± 0.034	1.632 ± 0.038	1.884 ± 0.044	2.14 ± 0.049
308.15 K	0.529 ± 0.015	0.662 ± 0.018	0.767 ± 0.02	0.913 ± 0.023	1.084 ± 0.027	1.287 ± 0.031	1.456 ± 0.035	1.675 ± 0.039	1.89 ± 0.044

N#C[C-](C#N)C#N.OCC[n+]1ccccc1 + c1ccsc1
Conditions	viscosity [mPa·s]
313.15 K, 101 kPa, x1 = 0.4042	9.96 ± 1

CCOC(=O)CCC(=O)OCC + CCCCCCO
293.15 K, 100 kPa
Conditions	viscosity [mPa·s]
x1 = 0.4999	2.495 ± 0.024
x1 = 0.7999	2.495 ± 0.024

CCOC(=O)CCC(=O)OCC + CCCO
100 kPa
Conditions	viscosity [mPa·s]
293.15 K, x1 = 0.3998	1.875 ± 0.017
313.15 K, x1 = 0.4999	1.325 ± 0.013
318.15 K, x1 = 0.8997	1.545 ± 0.015
323.15 K, x1 = 0.3998	1.065 ± 0.011

CC(=O)[O-].[Na+] + O
viscosity [mPa·s], 101.33 kPa
Conditions	293.15 K	298.15 K	303.15 K
x1 = 0.0046	1.082 ± 0.049	0.965 ± 0.043	0.863 ± 0.039
x1 = 0.0112	1.217 ± 0.054	1.083 ± 0.048	0.968 ± 0.043
x1 = 0.0172	1.355 ± 0.06	1.205 ± 0.053	1.075 ± 0.047
x1 = 0.0215	1.466 ± 0.066	1.302 ± 0.058	1.16 ± 0.052
x1 = 0.0287	1.673 ± 0.075	1.484 ± 0.066	1.32 ± 0.059
x1 = 0.0343	1.857 ± 0.083	1.645 ± 0.074	1.462 ± 0.065
x1 = 0.0402	2.076 ± 0.093	1.836 ± 0.082	1.629 ± 0.073
x1 = 0.0467	2.35 ± 0.11	2.076 ± 0.093	1.839 ± 0.082
x1 = 0.0505	2.529 ± 0.12	2.232 ± 0.1	1.975 ± 0.089
x1 = 0.0572	2.883 ± 0.13	2.54 ± 0.12	2.244 ± 0.1
x1 = 0.0652	3.379 ± 0.15	2.97 ± 0.13	2.619 ± 0.12

CC(=O)[O-].[Na+] + CC(=O)[O-].CC[n+]1ccn(C)c1
Conditions	viscosity [mPa·s]
298.15 K, 101 kPa, x1 = 0.0501	160.5 ± 11

NC=O + CC(C)(C)O
308 K, 101 kPa
Conditions	viscosity [mPa·s]
x1 = 0.1112	2.784
x1 = 0.2296	3.129
x1 = 0.3735	3.402
x1 = 0.5054	3.512
x1 = 0.6138	3.505
x1 = 0.7045	3.383
x1 = 0.7815	3.224
x1 = 0.8476	3.024
x1 = 0.9051	2.817

OCCCl + CCCCCO
viscosity [mPa·s], 101.33 kPa
Conditions	x1 = 0.0959	x1 = 0.194	x1 = 0.2912	x1 = 0.3946	x1 = 0.4922	x1 = 0.5939	x1 = 0.6962	x1 = 0.8018	x1 = 0.8986
298.15 K	3.401 ± 0.076	3.282 ± 0.073	3.2 ± 0.072	3.138 ± 0.07	3.088 ± 0.069	3.045 ± 0.068	3.02 ± 0.068	2.98 ± 0.067	2.92 ± 0.066
303.15 K	2.941 ± 0.066	2.86 ± 0.065	2.78 ± 0.063	2.731 ± 0.062	2.705 ± 0.061	2.69 ± 0.061	2.661 ± 0.06	2.62 ± 0.059	2.56 ± 0.058
308.15 K	2.58 ± 0.059	2.5 ± 0.057	2.441 ± 0.056	2.401 ± 0.055	2.384 ± 0.054	2.378 ± 0.054	2.34 ± 0.054	2.323 ± 0.053	2.25 ± 0.052

CN1CCC[C@H]1c1cccnc1 + CCCC(=O)O
viscosity [mPa·s], 101 kPa
Conditions	298.15 K	323.15 K
x1 = 0.099	11.74 ± 0.16	5.188 ± 0.058
x1 = 0.1992	48.69 ± 0.48	14.24 ± 0.23
x1 = 0.2139	52.39 ± 0.44	14.9 ± 0.22
x1 = 0.2277	53.82 ± 0.46	15.04 ± 0.23
x1 = 0.234	53.97 ± 0.46	15.13 ± 0.24
x1 = 0.2478	54.2 ± 0.47	14.99 ± 0.23
x1 = 0.2707	53.87 ± 0.47	14.89 ± 0.23
x1 = 0.2993	50.77 ± 0.44	13.9 ± 0.22
x1 = 0.3872	29.61 ± 0.33	9.46 ± 0.13
x1 = 0.5011	17.55 ± 0.18	–
x1 = 0.6081	11.63 ± 0.13	4.462 ± 0.061
x1 = 0.697	8.404 ± 0.098	3.766 ± 0.049
x1 = 0.804	6.265 ± 0.076	2.983 ± 0.039
x1 = 0.8928	5.192 ± 0.064	2.579 ± 0.034

CCCC(O)CC (centres undefined) + CO
298.15 K, 101.33 kPa
Conditions	viscosity [mPa·s]
x2 = 0.1014	4.298 ± 0.039
x2 = 0.2029	3.945 ± 0.036
x2 = 0.3111	3.363 ± 0.031
x2 = 0.4188	2.737 ± 0.025
x2 = 0.503	2.278 ± 0.021
x2 = 0.6078	1.758 ± 0.016
x2 = 0.7072	1.383 ± 0.013
x2 = 0.7994	1.054 ± 0.01
x2 = 0.9014	0.7655 ± 0.0075
